{
  "source": "patent US12214059B2",
  "about": "“Cleavable radioligands for targeting cell surface receptors and uses thereof” (Full-Life Te[…] Limited, priority 2021, dated 2025)",
  "key": {"[1]": {"biological_target": "T1, PSMA (Homo sapiens, UniProt Q04609)", "T1 construct": "host or cells: LNCaP cells", "T1 sequence (Q04609 whole entry)": "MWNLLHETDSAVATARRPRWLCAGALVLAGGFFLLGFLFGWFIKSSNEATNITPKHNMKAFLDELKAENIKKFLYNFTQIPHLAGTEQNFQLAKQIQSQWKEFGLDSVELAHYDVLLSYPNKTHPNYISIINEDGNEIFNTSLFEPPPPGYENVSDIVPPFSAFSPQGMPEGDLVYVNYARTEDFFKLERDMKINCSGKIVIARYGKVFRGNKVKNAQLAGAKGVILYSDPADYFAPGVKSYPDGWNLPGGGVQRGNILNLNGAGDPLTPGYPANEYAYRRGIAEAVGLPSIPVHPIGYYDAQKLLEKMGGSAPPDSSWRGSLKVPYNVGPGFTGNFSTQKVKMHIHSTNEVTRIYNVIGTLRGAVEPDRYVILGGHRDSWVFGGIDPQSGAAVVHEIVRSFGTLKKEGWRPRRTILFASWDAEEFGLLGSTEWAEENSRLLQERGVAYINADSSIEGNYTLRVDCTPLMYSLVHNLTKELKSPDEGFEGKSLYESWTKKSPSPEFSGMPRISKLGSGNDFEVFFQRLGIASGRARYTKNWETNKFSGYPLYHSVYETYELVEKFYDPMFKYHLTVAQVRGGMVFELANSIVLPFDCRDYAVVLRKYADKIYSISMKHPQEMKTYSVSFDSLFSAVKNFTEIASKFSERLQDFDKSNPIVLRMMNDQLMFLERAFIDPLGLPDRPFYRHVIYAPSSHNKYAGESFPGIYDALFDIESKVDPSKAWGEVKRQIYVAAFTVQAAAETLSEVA", "assay": "Cell-based radioligand competitive binding assay (^125I-C-8, LNCaP cells)", "settings": "for Relative Binding Affinity: C-1 = 1.00", "method": "The culture medium was replaced with fresh medium every 2-3 days. Experiments were performed with cells at 70-80% confluence.\nThe final volume in each well was maintained at 200 μL and insufficient volume was adjusted by the binding buffer."}, "[2]": {"system": "LNCap tumor-bearing mice", "assay": "Biodistribution study in CB-17 SCID mice bearing LNCap tumor", "type": "in vivo, mouse", "settings": "LNCap tumor-bearing mice", "method": "Biodistribution Study in CB-17 SCID Mice Bearing LNCap Tumor\nAll animal care and experimental procedure were performed by following the animal protocols approved by the ethics committee of China Institute of Radiation Protection. The CB-17 SCID mice (Charles River, Beijing) were utilized for these studies. […] These mice received subcutaneous rear flank injections of approximately 4×10^6 LNCap cells suspended in 200 μL of phosphate-buffered saline (PBS) and Matrigel (Corning) (1/1)."}, "[3]": {"system": "PC-3 PIP tumor-bearing mice", "assay": "Biodistribution study in SCID mice bearing PC3-PIP tumor", "type": "in vivo, mouse", "settings": "PC3 PIP tumor-bearing mice", "method": "Biodistribution Study in SCID Mice Bearing PC3-PIP Tumor\nSevere combined immunodeficient (ICR-SCID) mice from the Institute of Cancer Research (Taconic Farms, Germantown, NY) were utilized for these studies. […] These mice received bilateral subcutaneous rear flank injections of approximately 10×10^6 PC-3 PIP cells (prostate cancer cell PC-3 stably expressing human PSMA) suspended in 100 μL of 0.9% NaCl. […] The tissues and organs were weighed, counted in a PerkinElmer Wizard 3 automatic γ counter, and the percent injected dose (% ID) and % ID/g of each organ or tissue were calculated, as shown in Tables 5-24 and FIG. 1 and FIG. 2."}, "[4]": {"assay": "Ex-vivo mouse plasma stability study of ^177Lu-labeled compounds", "type": "in vitro ADME", "settings": "37° C.", "method": "Plasma Stability Study (Mouse and Human)\nMouse blood was collected via cardiac puncture of the left ventricle. Blood was placed into heparin-coated microfuge tubes and then centrifuged at 3500 rpm for 10 min to separate plasma for stability studies. Human plasma was purchased directly.\nAt each time point (0, 1, 2, 4, 24, 48 72 h), an aliquot of 25 μL sample was taken and mixed with 100 μL methanol containing 1% formic acid, vertex for 30-60 sec, then centrifuged at 20000 rpm for 10 min. 100 μL supernatant was collected and diluted with 40 μL H2O. 100 μL of the resulting mixture was injected to radio-HPLC for stability assessment, as shown examples FIG. 2 and FIG. 3. The best-fit T½ value of test compounds were calculated by fitting the data with linear or non-linear regression using GraphPad Prism 8.0.1."}},
  "data": [
    {"smiles": "O=C(O)CC[C@H](NC(=O)N[C@@H](CCCCNC(=O)[C@H](Cc1ccc2ccccc2c1)NC(=O)C1CCC(CNC(=O)CN2CCN(CC(=O)O)CCN(CC(=O)O)CCN(CC(=O)O)CC2)CC1)C(=O)O)C(=O)O", "note": "(stereo partly drawn) [Example C-1, (((S)-1-carboxy-5-((S)-3-(naphthalen-2-yl)-2-((1r,4S)-4-((2-(4,7,10-tris(carboxymethyl)-1,4,7,10-tetraazacyclododecan-1-yl)acetamido)methyl)cyclohexane-1-carboxamido)propanamido)pentyl)carbamoyl)-L-glutamic acid tetra(trifluoroacetic acid), reference compound]", "values": [
      {"measurement": "Relative Binding Affinity", "setting": "[1]; based on the mean value of the IC50 number", "result": 1.00},
      {"measurement": "LogIC50 Mean", "setting": "[1]; log10 of IC50 (negative values), nonlin fit, LNCaP cells, ^125I-C-8 radioligand", "result": "−8.544"},
      {"measurement": "IC50", "setting": "[1]; nonlin fit, LNCaP cells, ^125I-C-8 radioligand, scientific notation, unit inferred", "result": 2.86, "unit": "nM"},
      {"measurement": "Relative Binding Affinity", "setting": "[1]; relative", "result": 1.00},
      {"measurement": "T/K at 4 h (tumor uptake/kidney uptake)", "setting": "[2]; 4 h", "result": 2.52},
      {"measurement": "T at 24 h (tumor uptake)", "setting": "[2]; 24 h", "result": 10.0},
      {"measurement": "T/K at 24 h (tumor uptake/kidney uptake)", "setting": "[2]; 24 h", "result": 7.04},
      {"measurement": "T at 96 h (tumor uptake)", "setting": "[2]; 96 h", "result": 10.1},
      {"measurement": "T/K at 96 h (tumor uptake/kidney uptake), *value at 72 h", "setting": "[2]; value at 72 h", "result": "15.5*"},
      {"measurement": "T/K at 4 h (tumor uptake/kidney uptake)", "setting": "[3]; 4 h", "result": 7.0},
      {"measurement": "T at 24 h (tumor uptake)", "setting": "[3]; 24 h", "result": 10.4},
      {"measurement": "T/K at 24 h (tumor uptake/kidney uptake)", "setting": "[3]; 24 h", "result": 57},
      {"measurement": "T at 96 h (tumor uptake)", "setting": "[3]; 96 h", "result": 7.3},
      {"measurement": "T/K at 96 h (tumor uptake/kidney uptake)", "setting": "[3]; 96 h", "result": 182},
      {"measurement": "% Remaining 0 min", "setting": "[4]; 0 min", "result": 100, "unit": "%"},
      {"measurement": "% Remaining 1 h", "setting": "[4]; 1 h", "result": 100, "unit": "%"},
      {"measurement": "% Remaining 4 h", "setting": "[4]; 4 h", "result": 100, "unit": "%"},
      {"measurement": "% Remaining 24 h", "setting": "[4]; 24 h", "result": 100, "unit": "%"},
      {"measurement": "% Remaining 48 h", "setting": "[4]; 48 h", "result": 100, "unit": "%"},
      {"measurement": "% Remaining 72 h", "setting": "[4]; 72 h", "result": 100, "unit": "%"},
      {"measurement": "T½ (h)", "setting": "[4]; * = value obtained using nonlinear regression", "result": "Stable"}
    ]}
  ]
}
